{"source": "patent US20100099631A1", "about": "“Novel Use” (priority 2006, published 2010)", "key": {"[1]": {"experiment": "Plasma glucose and insulin concentrations during 4 hr recovery after glycogen-depleting exercise", "type": "in vivo, human (trained cyclists)", "experimental": "(§1) Eight trained cyclists participated in a study which was approved by the Ethics Committee of RMIT University, Melbourne, Australia. Each subject participated in two experimental trials separated by 7 to 10 days. Trials were randomised and double-blind. Approximately 12 to 14 hours before each trial, the subjects reported to the laboratory to undertake 90 minutes of intense cycling (repeated sprints) to deplete muscle glycogen stores. The subjects were then fed a standardised low carbohydrate meal (60% of energy from fat) and had to refrain from solid feeding for the following 12 to 14 hours. During this period water was allowed ad libitum.\n(§2) The next morning, subjects reported to the laboratory between 0600 and 0700 hours. After a rest period of 10 minutes, an indwelling canula was inserted into the right forearm and a resting blood sample taken. Local anaesthesia was applied to the subjects skin to enable subcutaneous tissue and fascia of the vastus lateralis of the subjects right leg in preparation for muscle biopsies.\n(§3) After biopsy preparation, a bout of exhaustive exercise (submaximal continuous cycling) was undertaken to further deplete muscle glycogen stores. The exhaustive cycling protocol has been previously described by McInerney et al. (McInerney P., Lessard S. J., Burke L. M., Coffey V. G., Lo Giudice S. L., Southgate R. J., Hawley J. A. Failure to repeatedly supercompensate muscle glycogen stores in highly trained men. Med. Sci. Sports Excer. 37:404-411, 2005). During exercise the subjects were allowed to drink water ad libitum and were fan-cooled.\n(§4) Laboratory conditions were standardised for the tests with 50% relative humidity and a temperature of 20° C. Immediately on completion of the exercise and while subjects remained seated on the cycle ergometer, a muscle biopsy was taken and frozen within 15 seconds of the last muscle contraction. After the biopsy, subjects dismounted the ergometer and rested in a supine position. During one trial, subjects were fed 1 g/kg body mass (BM) of carbohydrate immediately upon cessation of exercise and thereafter 1 g/kg BM of carbohydrate after 60, 120 and 180 minutes of recovery (a total of 4 g/kg BM carbohydrate). In the second trial, subjects followed the same carbohydrate ingestion regimen but in addition consumed 4 mg/kg BM of caffeine immediately upon cessation of the exercise and then after 120 minutes during recovery. Blood samples were taken at regular intervals throughout the recovery period (0, 30, 60, 90, 120, 180 and 240 minutes). Muscle biopsies were taken immediately after exercise and after 1 and 4 hr of recovery. All muscle samples were stored at −80° C. until analysis.\n(§5) Blood samples were analysed for plasma glucose and insulin concentrations at rest, and at regular intervals during recovery. The protocols for blood analysis are routine and have been described previously ((McInerney P., Lessard S. J., Burke L. M., Coffey V. G., Lo Giudice S. L., Southgate R. J., Hawley J. A. Failure to repeatedly supercompensate muscle glycogen stores in highly trained men. Med. Sci. Sports Excer. 37:404-411, 2005). Plasma caffeine levels were analysed by high-performance liquid chromatography. Muscle samples were analysed for glycogen content immediately after exercise and after 1 and 4 hours of recovery."}, "[2]": {"experiment": "Plasma caffeine concentration by HPLC during recovery after exercise", "type": "in vivo, human (trained cyclists)", "conditions": "for concentration at 1 h / concentration at 4 h: 4 mg/kg BM", "experimental": "as §1, §4, §5"}, "muscle glycogen": {"test_system": "muscle glycogen", "experiment": "Muscle glycogen content and resynthesis rate (vastus lateralis biopsies) after exhaustive exercise", "type": "in vivo, human (trained cyclists)", "conditions": "for Muscle Glycogen Resynthesis Rate: caffeine with carbohydrate", "experimental": "as §1, §2, §3, §4, §5"}, "muscle glucose oxidation": {"test_system": "muscle glucose oxidation", "conditions": "co-ingestion of caffeine and glucose during exercise; cited from earlier work"}, "[3]": {"conditions": "0 hr, immediately post exercise"}, "[4]": {"conditions": "0.5 hr recovery, caffeine 4 mg/kg BM at 0 and 120 min with carbohydrate 1 g/kg BM hourly"}, "[5]": {"conditions": "1 hr recovery, caffeine 4 mg/kg BM at 0 and 120 min with carbohydrate 1 g/kg BM hourly"}, "[6]": {"conditions": "1.5 hr recovery, caffeine 4 mg/kg BM at 0 and 120 min with carbohydrate 1 g/kg BM hourly"}, "[7]": {"conditions": "2 hr recovery, caffeine 4 mg/kg BM at 0 and 120 min with carbohydrate 1 g/kg BM hourly"}, "[8]": {"conditions": "3 hr recovery, caffeine 4 mg/kg BM at 0 and 120 min with carbohydrate 1 g/kg BM hourly"}, "[9]": {"conditions": "4 hr recovery, caffeine 4 mg/kg BM at 0 and 120 min with carbohydrate 1 g/kg BM hourly"}, "[10]": {"conditions": "rest, before exercise and ingestion"}}, "note": "Read-outs that look alike come from different tables or passages of the source.", "data": [{"smiles": "Cn1c(=O)c2c(ncn2C)n(C)c1=O", "note": "[Caffeine, caffeine]", "values": [{"measurement": "Plasma Glucose", "setting": "[1]; [3]", "result": 3.62, "unit": "mmol/L"}, {"measurement": "Plasma Insulin", "setting": "[1]; [3]", "result": 4.17, "unit": "uU/mL"}, {"measurement": "Plasma Glucose", "setting": "[1]; [4]", "result": 6.06, "unit": "mmol/L"}, {"measurement": "Plasma Insulin", "setting": "[1]; [4]", "result": 30.17, "unit": "uU/mL"}, {"measurement": "Plasma Glucose", "setting": "[1]; [5]", "result": 6.29, "unit": "mmol/L"}, {"measurement": "Plasma Insulin", "setting": "[1]; [5]", "result": 29.23, "unit": "uU/mL"}, {"measurement": "Plasma Glucose", "setting": "[1]; [6]", "result": 5.95, "unit": "mmol/L"}, {"measurement": "Plasma Insulin", "setting": "[1]; [6]", "result": 46.33, "unit": "uU/mL"}, {"measurement": "Plasma Glucose", "setting": "[1]; [7]", "result": 5.58, "unit": "mmol/L"}, {"measurement": "Plasma Insulin", "setting": "[1]; [7]", "result": 46.02, "unit": "uU/mL"}, {"measurement": "Plasma Glucose", "setting": "[1]; [8]", "result": 5.24, "unit": "mmol/L"}, {"measurement": "Plasma Insulin", "setting": "[1]; [8]", "result": 68.53, "unit": "uU/mL"}, {"measurement": "Plasma Glucose", "setting": "[1]; [9]", "result": 5.23, "unit": "mmol/L"}, {"measurement": "Plasma Insulin", "setting": "[1]; [9]", "result": 46.91, "unit": "uU/mL"}, {"measurement": "area under the insulin versus time curve compared to carbohydrate alone", "setting": "[1]; caffeine with carbohydrate, 4 hr recovery, P<0.05", "result": "significantly greater"}, {"measurement": "Plasma Glucose", "setting": "[1]; [10]", "result": 4.04, "unit": "mmol/L"}, {"measurement": "Plasma Insulin", "setting": "[1]; [10]", "result": 9.36, "unit": "uU/mL"}, {"measurement": "concentration at 0 h", "setting": "[2]; human, plasma, oral, 0 hr, immediately post exercise", "result": 0, "unit": "nM"}, {"measurement": "concentration at 1 h", "setting": "[2]; human, plasma, oral, 1 hr recovery, oral caffeine 4 mg/kg BM at 0 and 120 min with carbohydrate, read-out: Plasma caffeine concentration", "result": 31.5, "unit": "µM"}, {"measurement": "concentration at 4 h", "setting": "[2]; human, plasma, oral, 4 hr recovery, oral caffeine 4 mg/kg BM at 0 and 120 min with carbohydrate, read-out: Plasma caffeine concentration", "result": 77.9, "unit": "µM"}, {"measurement": "concentration at 1 h", "setting": "[2]; human, plasma, oral, after 1 hr, carbohydrate and caffeine, read-out: plasma caffeine levels", "result": 30, "unit": "µM"}, {"measurement": "concentration at 4 h", "setting": "[2]; human, plasma, oral, after 4 hr, carbohydrate and caffeine, read-out: plasma caffeine levels", "result": "~80", "unit": "µM"}, {"measurement": "Plasma caffeine concentration", "setting": "[2]; [10]", "result": 0.00, "unit": "µM"}, {"measurement": "Muscle Glycogen Resynthesis Rate", "setting": "muscle glycogen; 0-1 hr of recovery", "result": 63.52, "unit": "mm/Kg · hr · dm"}, {"measurement": "Muscle Glycogen Content", "setting": "muscle glycogen; [3]", "result": 76, "unit": "mmol/Kg · dm"}, {"measurement": "Muscle Glycogen Content", "setting": "muscle glycogen; [5]", "result": 149, "unit": "mmol/Kg · dm"}, {"measurement": "Muscle Glycogen Resynthesis Rate", "setting": "muscle glycogen; 1 hr-4 hr of recovery", "result": 57.69, "unit": "mm/Kg · hr · dm"}, {"measurement": "Muscle Glycogen Content", "setting": "muscle glycogen; [9]", "result": 313, "unit": "mmol/Kg · dm"}, {"measurement": "Muscle Glycogen Content", "setting": "muscle glycogen; after 1 hr of recovery", "result": "149±18", "unit": "mmol/kg d.w"}, {"measurement": "increase of muscle glycogen content", "setting": "muscle glycogen; after 1 hr of recovery, vs exhaustion", "result": "~80", "unit": "%"}, {"measurement": "muscle glycogen levels", "setting": "muscle glycogen; after 4 hr of recovery, co-ingestion of caffeine with CHO, P<0.001 vs placebo", "result": "313±26", "unit": "mmol/kg d.w."}, {"measurement": "muscle glycogen levels at exhaustion", "setting": "muscle glycogen; at exhaustion, before ingestion", "result": "76 ± 9", "unit": "mmol/kg"}, {"measurement": "rates of muscle glycogen synthesis, higher than PL (carbohydrate alone)", "setting": "muscle glycogen; from 1-4 hr of recovery", "result": 66, "unit": "%"}, {"measurement": "rates of muscle glycogen synthesis", "setting": "muscle glycogen; from 1-4 hr of recovery, P<0.05 vs PL", "result": "57.7 ± 7.6", "unit": "mmol/kg/h"}, {"measurement": "average rate of resynthesis, higher than PL (carbohydrate alone)", "setting": "muscle glycogen; over the 4 hours of recovery", "result": 66, "unit": "%"}, {"measurement": "average rate of resynthesis", "setting": "muscle glycogen; over the 4 hours of recovery, P<0.05 vs PL", "result": "57.71 ± 7.6", "unit": "mmol/kg/h"}, {"measurement": "increase in muscle glucose oxidation", "setting": "muscle glucose oxidation", "result": 26, "unit": "%"}]}]}
